Reference: PMC3572206 (Biomaterials, 2012)

Experiments:
[1] = system: MDA-1986; test: Cytotoxicity; format: cell-based, human; details: read-out: IC50: MDA-1986; 72 hrs post-addition
[2] = system: MDA-MB-468; test: Cytotoxicity; format: cell-based, human; details: read-out: IC50: MDA-MB-468; 72 hrs post-addition
[3] = system: MDA-1986 human head and neck squamous cell carcinoma xenografts
[4] = system: MDA-MB-231; test: Cytotoxicity; format: cell-based, human; details: read-out: IC50: MDA-MB-231; 72 hrs post-addition
[5] = system: MDA-1986 cells; test: Nitric oxide release in vitro; format: cell-based, human

Row | Molecule | IC50 [1] | IC50 [2] | progressive disease (PD) rate ([3]; 10 mg/kg, Sugar-NO1 s.c., JS-K i.v.) | animals euthanized (tumor size exceeding 1000 mm^3 or necrosis of the injection site on the tail) ([3]; within 7 weeks) | IC50 [4] | increase in release half-life compared to JS-K [5]
1 | CCOC(=O)N1CCN(/[N+]([O-])=N/Oc2ccc([N+](=O)[O-])cc2[N+](=O)[O-])CC1 [JS-K, O^2-(2,4-Dinitrophenyl) 1-[(4-ethoxycarbonyl)piperazin-1-yl]diazen-1-ium-1,2-diolate, reference compound] | 16 µM | 42 µM | 100% | 100% | – | –
2 | O=[N+]([O-])c1ccc(ON=[N+]([O-])N2CCN(CCOCCO)CC2)c([N+](=O)[O-])c1 [NO1, O^2-(2,4-Dinitrophenyl) 1-{[4-(2-(2-hydroxyethoxy))ethyl]piperazin-1-yl} diazen-1-ium-1,2-diolate] | 32 µM | 26 µM | – | – | 32 µM | 1 fold
3 | O^2-(2,4-Dinitrophenyl) 1-{[4-(2-hydroxy)ethyl]-3-methylpiperazin-1-yl}diazen-1-ium-1,2-diolate [NO2] | 57 µM | 27 µM | – | – | – | –
